Data as given in ChEMBL document CHEMBL5385858, “Identification of novel Pyrrolo[2,3-d]Pyrimidine-based KRAS G12C inhibitors with anticancer effects” (Eur J Med Chem, 2023).
The source made the active and inactive calls. The rule behind the calls is not given here.

Assays:
[1] = AUC (0 to infinity) in ICR mouse at 30 mg/kg, po measured for 24 hrs by LC-MS/MS analysis; type: ADME, organism-based; parameters: time 24 hrs, dose 30 mg/kg, route po; settings: in vivo
[2] = AUC (0 to t) in ICR mouse at 30 mg/kg, po measured for 24 hrs by LC-MS/MS analysis; type: ADME, organism-based; parameters: dose 30 mg/kg, time 24 hrs, route po; settings: in vivo
NCI-H358 [3] = experiment: Antiproliferative activity against human NCI-H358 cells harboring KRAS G12C/Y96D mutant assessed as inhibition of cell proliferation incubated for 48 hrs by CCK8 assay; type: functional, cell-based
[4] = Half life in ICR mouse at 30 mg/kg, po measured for 24 hrs by LC-MS/MS analysis; type: ADME, organism-based; settings: in vivo
[5] = Toxicity in BALB/c-nu/nu mouse xenografted with human NCI-H358 cells assessed as morphological damage in heart at 10 to 30 mg/kg, po qd treated for 20 days; type: organism-based; settings: in vivo, 480 h, dose 10-30 mg/kg, time 20 day
[6] = C0 in ICR mouse at 30 mg/kg, po measured for 24 hrs by LC-MS/MS analysis; type: ADME, organism-based; settings: in vivo
[7] = AUC (0 to infinity) in ICR mouse at 3 mg/kg, iv measured for 24 hrs by LC-MS/MS analysis; type: ADME, organism-based; parameters: dose 3 mg/kg, time 24 hrs, route iv; settings: in vivo
[8] = C0 in ICR mouse at 3 mg/kg, iv measured for 24 hrs by LC-MS/MS analysis; type: ADME, organism-based; settings: in vivo
[9] = Toxicity in BALB/c-nu/nu mouse xenografted with human NCI-H358 cells assessed as drug tolerance at 10 to 30 mg/kg, po qd treated for 20 days; type: organism-based; settings: in vivo, 480 h, dose 10-30 mg/kg, time 20 day
SOS1-KRAS = SOS1-KRAS (Homo sapiens, UniProt P01116, G12C); experiment: Inhibition of KRAS G12C mutant/SOS1 (unknown origin) interaction incubated for 2 hrs in presence of GTP by HTRF assay; type: protein-complex assay
Sequence of SOS1-KRAS (P01116 whole entry G12C, looked up): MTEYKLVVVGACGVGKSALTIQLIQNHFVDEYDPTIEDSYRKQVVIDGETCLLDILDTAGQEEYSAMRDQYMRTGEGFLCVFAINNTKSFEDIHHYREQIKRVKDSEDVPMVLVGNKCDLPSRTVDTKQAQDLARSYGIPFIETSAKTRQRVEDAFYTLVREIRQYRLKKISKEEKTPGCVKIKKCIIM

[10] = Toxicity in BALB/c-nu/nu mouse xenografted with human NCI-H358 cells assessed as morphological damage in kidney at 10 to 30 mg/kg, po qd treated for 20 days; type: organism-based; settings: in vivo, 480 h, dose 10-30 mg/kg, time 20 day
[11] = Toxicity in BALB/c-nu/nu mouse xenografted with human NCI-H358 cells assessed as histological change in lung at 10 to 30 mg/kg, po qd treated for 20 days by H and E staining based analysis; type: organism-based; settings: in vivo, 480 h, dose 10-30 mg/kg, time 20 day
[12] = Toxicity in BALB/c-nu/nu mouse xenografted with human NCI-H358 cells assessed as histological change in liver at 10 to 30 mg/kg, po qd treated for 20 days by H and E staining based analysis; type: organism-based; settings: in vivo, 480 h, dose 10-30 mg/kg, time 20 day
NCI-H358 [13] = experiment: Antitumor activity in human NCI-H358 cells xenografted in BALB/c-nu/nu mouse assessed as tumor regression at 30 mg/kg, po qd treated for 20 days; type: functional, organism-based; settings: time 20.0 day
NCI-H358 [14] = experiment: Induction of apoptosis in human NCI-H358 cells assessed as early apoptotic cells at 0.1 uM incubated for 24 hrs by Annexin V-FITC/PI staining based flow cytometry (reference value: 5.4 %); type: functional
NCI-H358 [15] = experiment: Antitumor activity in human NCI-H358 cells xenografted in BALB/c-nu/nu mouse assessed as tumor growth inhibition at 10 mg/kg, po qd treated for 20 days relative to control; type: functional; settings: Mus musculus, NCI-H358, 480 h, time 20 day, read-out: TGI
[16] = Clearance in ICR mouse at 3 mg/kg, iv measured for 24 hrs by LC-MS/MS analysis; type: ADME, organism-based; settings: in vivo
NCI-H358 [17] = experiment: Induction of apoptosis in human NCI-H358 cells assessed as early apoptotic cells at 1 uM incubated for 24 hrs by Annexin V-FITC/PI staining based flow cytometry (reference value: 5.4 %); type: functional
[18] = AUC (0 to t) in ICR mouse at 3 mg/kg, iv measured for 24 hrs by LC-MS/MS analysis; type: ADME, organism-based; parameters: dose 3 mg/kg, time 24 hrs, route iv; settings: in vivo
[19] = system: GTPase KRas (Homo sapiens), P01116 [G12C]; experiment: Inhibition of KRAS G12C mutant RBD in human NCI-H358 cells upto 1 uM in presence of GTP by pull-down assay; type: cell-based; settings: time 24.0 hrs, TDE = time-dependent effect
Sequence of GTPase KRas (Homo sapiens), P01116 [G12C] (P01116 whole entry G12C): as the sequence (P01116 whole entry G12C, looked up) above

NCI-H358 [20] = experiment: Antiproliferative activity against human NCI-H358 cells assessed as inhibition of cell proliferation at 0.03 uM incubated for 14 days by crystal violet staining based colony formation assay; type: functional; settings: time 14.0 day
NCI-H358 [21] = experiment: Induction of apoptosis in human NCI-H358 cells assessed as necrotic cells at 0.3 uM incubated for 24 hrs by Annexin V-FITC/PI staining based flow cytometry (reference value: 1.88 %); type: functional
NCI-H358 [22] = experiment: Inhibition of cell invasion in human NCI-H358 cells measured for 24 hrs by transwell assay; type: functional, cell-based
NCI-H358 [23] = experiment: Induction of apoptosis in human NCI-H358 cells assessed as late apoptotic cells at 0.1 uM incubated for 24 hrs by Annexin V-FITC/PI staining based flow cytometry (reference value: 1.32 %); type: functional
[24] = system: GTPase KRas (Homo sapiens), P01116 [G12C]; experiment: Inhibition of KRAS G12C mutant in human […] cells assessed as decrease in ERK phosphorylation at 5 to 20 uM incubated for 4 hrs by Western blot analysis; type: cell-based; settings: dose 5-20 µM
NCI-H358 [25] = experiment: In vivo inhibition of KRAS G12C mutant in human NCI-H358 cells xenografted in BALB/c-nu/nu mouse assessed as decrease in ERK phosphorylation at 10 to 30 mg/kg, po qd treated for 20 days by Western blot analysis; type: functional, organism-based; settings: dose 10-30 mg/kg, time 20.0 day
NCI-H358 [26] = experiment: Inhibition of cell migration in human NCI-H358 cells at 0.1 to 1 uM measured for 48 hrs by wound scratch assay; type: functional, cell-based; settings: dose 0.1-1 µM
[27] = system: GTPase KRas (Homo sapiens), P01116 [G12C]; experiment: Inhibition of KRAS G12C mutant in human NCI-H358 cells assessed as decrease in ERK phosphorylation at 0.1 uM incubated for 4 to 24 hrs by Western blot analysis; type: cell-based; settings: time 4-24 hrs
[28] = Toxicity in BALB/c-nu/nu mouse xenografted with human NCI-H358 cells assessed as morphological damage in spleen at 10 to 30 mg/kg, po qd treated for 20 days; type: organism-based; settings: in vivo, 480 h, dose 10-30 mg/kg, time 20 day
[29] = Toxicity in BALB/c-nu/nu mouse xenografted with human NCI-H358 cells assessed as body weight loss at 10 to 30 mg/kg, po qd treated for 20 days; type: organism-based; settings: in vivo, 480 h, dose 10-30 mg/kg, time 20 day
NCI-H358 [30] = experiment: Induction of apoptosis in human NCI-H358 cells assessed as early apoptotic cells at 0.5 uM incubated for 24 hrs by Annexin V-FITC/PI staining based flow cytometry (reference value: 5.4 %); type: functional
MIA PaCa-2 = experiment: Antiproliferative activity against human MIA PaCa-2 cells harboring KRAS G12C mutant assessed as inhibition of cell proliferation incubated for 3 days by CCK8 assay; type: functional, cell-based; settings: MIA PaCa-2, 72 h
NCI-H358 [31] = experiment: Induction of apoptosis in human NCI-H358 cells assessed as viable cells at 0.3 uM incubated for 24 hrs by Annexin V-FITC/PI staining based flow cytometry (reference value: 91.4 %); type: functional; settings: read-out: Activity
[32] = system: GTPase KRas (Homo sapiens), P01116 [G12C]; experiment: Inhibition of KRAS G12C mutant in human NCI-H358 cells assessed as decrease in ERK phosphorylation upto 5 uM by Western blot analysis; type: cell-based; settings: time 2-72 hrs, TDE = time-dependent effect

AUC(0-inf) [1]: 835 ng·h/mL
AUC(0-t) at 24 h [2]: 600 ng·h/mL
half-life [4]: 4.79 h
C0 [6]: 316 ng/mL
AUC(0-inf) [7]: 804 ng·h/mL
C0 at 24 h [8]: 1960 ng/mL
IC50 (SOS1-KRAS): 210 nM
clearance [16]: 62.3 mL/min/kg
AUC(0-t) at 24 h [18]: 801 ng·h/mL
inhibition [19]: Tde
inhibition [24]: Active
inhibition [27]: Active
IC50 (MIA PaCa-2): 870 nM
inhibition [32]: Tde
Structure (SMILES): C=CC(=O)N1CCN(c2nc(OC[C@@]34CCCN3C[C@H](F)C4)nc3c2cc(-c2cccc4cccc(C)c24)n3C)C[C@@H]1CC#N
inhibition (NCI-H358 [3]): Active
Activity [5]: Non-Toxic
Activity [9]: Non-Toxic
Activity [10]: Non-Toxic
Activity [11]: Non-Toxic
Activity [12]: Non-Toxic
Activity (NCI-H358 [13]): Active
Activity (NCI-H358 [14]): 10.5%
inhibition in vivo at 10 mg/kg (NCI-H358 [15]): 65.4%
Activity (NCI-H358 [17]): 22.4%
inhibition (NCI-H358 [20]): Active
Activity (NCI-H358 [21]): 1.06%
Activity (NCI-H358 [22]): Dose-Dependent Effect
Activity (NCI-H358 [23]): 3.71%
inhibition (NCI-H358 [25]): Active
Activity (NCI-H358 [26]): Active
Activity [28]: Non-Toxic
Activity [29]: Non-Toxic
Activity (NCI-H358 [30]): 14%
viability at 0.3 µM (NCI-H358 [31]): 83.2%
